Measured values published in patent US20240327412A1, “FACTOR XIIA INHIBITORS” (KALVISTA PHARMACEUTICALS LIMITED, priority 2021, published 2024).

These molecules were tested against T1, Human Factor XIIa (Homo sapiens, UniProt P00748) (assay: Determination of FXIIa inhibition (fluorogenic substrate H-DPro-Phe-Arg-AFC, IC50 assay)). Conditions: substrate at Km concentration, 25° C.; category scale; read-out: Human FXII IC50 (nm).
T1 construct: Proteolytic cleavage of FXII to heavy and light chains of FXIIa dramatically increases catalytic activity; purchased Enzyme Research Laboratories
T1 sequence (P00748 373-615 limits assumed): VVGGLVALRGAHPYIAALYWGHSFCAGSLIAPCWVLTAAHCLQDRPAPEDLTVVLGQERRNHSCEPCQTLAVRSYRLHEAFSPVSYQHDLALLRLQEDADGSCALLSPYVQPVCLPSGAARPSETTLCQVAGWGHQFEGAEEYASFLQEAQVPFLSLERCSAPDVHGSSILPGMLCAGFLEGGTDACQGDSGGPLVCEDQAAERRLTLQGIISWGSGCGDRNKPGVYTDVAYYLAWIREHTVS
T1 sequence (P00748 20-372 partner limits assumed): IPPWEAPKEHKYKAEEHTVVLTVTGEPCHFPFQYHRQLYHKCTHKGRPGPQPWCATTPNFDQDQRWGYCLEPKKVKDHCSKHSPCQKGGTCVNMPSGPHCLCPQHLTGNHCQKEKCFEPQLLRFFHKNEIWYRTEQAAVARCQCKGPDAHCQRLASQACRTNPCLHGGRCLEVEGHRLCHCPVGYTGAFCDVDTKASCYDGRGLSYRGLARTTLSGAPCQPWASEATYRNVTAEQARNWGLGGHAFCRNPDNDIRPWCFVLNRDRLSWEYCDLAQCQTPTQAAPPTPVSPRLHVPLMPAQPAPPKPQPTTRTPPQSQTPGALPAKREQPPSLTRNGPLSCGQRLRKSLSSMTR
Format: biochemical
Summary of the method: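 Human FXIIa incubated at 25° C. with fluorogenic H-DPro-Phe-Arg-AFC at its Km concentration plus varying compound levels. Linear fluorescence increase over 5 min taken as % activity; IC50 is concentration halving uninhibited activity.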

Row | SMILES | IC50
1 | CC(=O)N1CC2(CNc3cccc4c(N)nccc34)CC1(COc1ccn(C)c(=O)c1)C2 [Example 13003, 4-((2-acetyl-4-(((1-aminoisoquinolin-5-yl)amino)methyl)-2-azabicyclo[2.1.1]hexan-1-yl)methoxy)-1-methylpyridin-2(1H)-one] | 100 to 300 nM
2 | Cn1ccc(OCC23CC(CNc4cccc5c(N)nccc45)(CN2c2nc4ccccc4o2)C3)cc1=O [Example 13018, 4-[[4-[[(1-aminoisoquinolin-5-yl)amino]methyl]-2-(1,3-benzoxazol-2-yl)-2-azabicyclo[2.1.1]hexan-1-yl]methoxy]-1-methylpyridin-2-one] | 300 to 1000 nM
3 | Cn1ccc(OCC23CN(C(=O)Cc4ccccc4)C(CNc4cccc5c(N)nccc45)(C2)C3)cc1=O [Example 12028, 4-((1-(((1-aminoisoquinolin-5-yl)amino)methyl)-2-(2-phenylacetyl)-2-azabicyclo[2.1.1]hexan-4-yl)methoxy)-1-methylpyridin-2(1H)-one] | 10 to 100 nM
4 | Cn1ccc(OCC23CN(C(=O)OC(C)(C)C)C(CNc4ccc5cnccc5c4)(C2)C3)cc1=O [Example 12045, tert-butyl 1-((isoquinolin-6-ylamino)methyl)-4-(((1-methyl-2-oxo-1,2-dihydropyridin-4-yl)oxy)methyl)-2-azabicyclo[2.1.1]hexane-2-carboxylate] | 10000 to 40000 nM
5 | Nc1nccc2c(NCC34CC(COc5ccc6nncn6c5)(CCO3)C4)cccc12 [Example 10929, N5-((5-(([1,2,4]triazolo[4,3-a]pyridin-6-yloxy)methyl)-2-oxabicyclo[3.1.1]heptan-1-yl)methyl)isoquinoline-1,5-diamine] | 300 to 1000 nM
6 | Cc1cc(OCC23CCOC(CNc4cccc5c(N)nccc45)(C2)C3)ccn1 [Example 10953, N5-((5-(((2-methylpyridin-4-yl)oxy)methyl)-2-oxabicyclo[3.1.1]heptan-1-yl)methyl)isoquinoline-1,5-diamine] | 100 to 300 nM
7 | Cn1ccc(OCC23CN(C(=O)NCc4ccc5occc5c4)C(CNc4cccc5c(N)nccc45)(C2)C3)cc1=O [Example 12070, 1-(((1-aminoisoquinolin-5-yl)amino)methyl)-N-(benzofuran-5-ylmethyl)-4-(((1-methyl-2-oxo-1,2-dihydropyridin-4-yl)oxy)methyl)-2-azabicyclo[2.1.1]hexane-2-carboxamide] | 10 to 100 nM
8 | Cn1ccc(OCC23CN(C(=O)CCc4cccc(Br)c4)C(CNc4cccc5c(N)nccc45)(C2)C3)cc1=O [Example 12053, 4-((1-(((1-aminoisoquinolin-5-yl)amino)methyl)-2-(3-(3-bromophenyl)propanoyl)-2-azabicyclo[2.1.1]hexan-4-yl)methoxy)-1-methylpyridin-2(1H)-one] | 10 to 100 nM
9 | CN1Cc2cc(OCC34CN(C(=O)OCc5ccccc5)C(CNc5cccc6c(N)nccc56)(C3)C4)ccc2C1=O [Example 12018, benzyl 1-(((1-aminoisoquinolin-5-yl)amino)methyl)-4-(((2-methyl-1-oxoisoindolin-5-yl)oxy)methyl)-2-azabicyclo[2.1.1]hexane-2-carboxylate] | 10 to 100 nM
10 | Cn1ccc(OCC23CN(C(=O)CCc4cccc(C(F)F)c4)C(CNc4cccc5c(N)nccc45)(C2)C3)cc1=O [Example 12048, 4-((1-(((1-aminoisoquinolin-5-yl)amino)methyl)-2-(3-(3-(difluoromethyl)phenyl)propanoyl)-2-azabicyclo[2.1.1]hexan-4-yl)methoxy)-1-methylpyridin-2(1H)-one] | 10 to 100 nM
11 | Cc1ccnc(OCC23CCOC(CNc4cccc5c(N)nccc45)(C2)C3)c1 [Example 10955, N5-((5-(((4-methylpyridin-2-yl)oxy)methyl)-2-oxabicyclo[3.1.1]heptan-1-yl)methyl)isoquinoline-1,5-diamine] | 1000 to 3000 nM
12 | Nc1nccc2c(NCC34CC(COc5ccc6c(c5)CNC6=O)(C3)C4)cccc12 [Example 1133, 5-((3-(((1-aminoisoquinolin-5-yl)amino)methyl)bicyclo[1.1.1]pentan-1-yl)methoxy)isoindolin-1-one] | 100 to 300 nM
13 | Cc1cnc2ccc(OCC34COC(CNc5cccnc5)(C3)C4)cn12 [Example 6661, N-((4-(((3-methylimidazo[1,2-a]pyridin-6-yl)oxy)methyl)-2-oxabicyclo[2.1.1]hexan-1-yl)methyl)pyridin-3-amine] | 10000 to 40000 nM
14 | Cn1ccc(OCC23CN(C(=O)NCc4ccccc4)C(CNc4c(F)ccc5c(N)nccc45)(C2)C3)cc1=O [Example 12072, 1-(((1-amino-6-fluoroisoquinolin-5-yl)amino)methyl)-N-benzyl-4-(((1-methyl-2-oxo-1,2-dihydropyridin-4-yl)oxy)methyl)-2-azabicyclo[2.1.1]hexane-2-carboxamide] | 300 to 1000 nM
15 | Cc1cnc2ccc(OCC34COC(CNc5ccccc5C#N)(C3)C4)cn12 [Example 6658, 2-(((4-(((3-methylimidazo[1,2-a]pyridin-6-yl)oxy)methyl)-2-oxabicyclo[2.1.1]hexan-1-yl)methyl)amino)benzonitrile] | 10000 to 40000 nM
16 | Cn1ccc(OCC23CN(C(=O)OCc4cccnc4)C(CNc4cccc5c(N)nccc45)(C2)C3)cc1=O [Example 12022, pyridin-3-ylmethyl 1-(((1-aminoisoquinolin-5-yl)amino)methyl)-4-(((1-methyl-2-oxo-1,2-dihydropyridin-4-yl)oxy)methyl)-2-azabicyclo[2.1.1]hexane-2-carboxylate] | 10 to 100 nM
17 | Cn1ccc(OCC23CC(CNc4cccc5c(N)nccc45)(CN2C(=O)OCc2ccccc2Cl)C3)cc1=O [Example 13020, 2-chlorobenzyl 4-(((1-aminoisoquinolin-5-yl)amino)methyl)-1-(((1-methyl-2-oxo-1,2-dihydropyridin-4-yl)oxy)methyl)-2-azabicyclo[2.1.1]hexane-2-carboxylate] | 10 to 100 nM
18 | Nc1nccc2c(NCC34CC(COc5ccncn5)(CCO3)C4)cccc12 [Example 10937, N5-((5-((pyrimidin-4-yloxy)methyl)-2-oxabicyclo[3.1.1]heptan-1-yl)methyl)isoquinoline-1,5-diamine] | 3000 to 10000 nM
19 | CCn1c(C)cc(OCC23CCOC(CNc4cccc5c(N)nccc45)(C2)C3)cc1=O [Example 10964, 4-((1-(((1-aminoisoquinolin-5-yl)amino)methyl)-2-oxabicyclo[3.1.1]heptan-5-yl)methoxy)-1-ethyl-6-methylpyridin-2(1H)-one] | 10 to 100 nM
20 | Cc1cc(OCC23CN(C(=O)Cc4ccccc4)C(CNc4cccc5c(N)nccc45)(C2)C3)cc(=O)n1C [Example 12039, 4-((1-(((1-aminoisoquinolin-5-yl)amino)methyl)-2-(2-phenylacetyl)-2-azabicyclo[2.1.1]hexan-4-yl)methoxy)-1,6-dimethylpyridin-2(1H)-one] | 10 to 100 nM
21 | Nc1nccc2c(NCC34CC(COc5ccc6c(c5)CNC6=O)(CCO3)C4)cccc12 [Example 10931, 5-((1-(((1-aminoisoquinolin-5-yl)amino)methyl)-2-oxabicyclo[3.1.1]heptan-5-yl)methoxy)isoindolin-1-one] | 10 to 100 nM
22 | Cn1ccc(OCC23CC(CNc4cccc5c(N)nccc45)(CN2C(=O)Cc2ccccc2)C3)cc1=O [Example 13021, 4-((4-(((1-aminoisoquinolin-5-yl)amino)methyl)-2-(2-phenylacetyl)-2-azabicyclo[2.1.1]hexan-1-yl)methoxy)-1-methylpyridin-2(1H)-one] | 300 to 1000 nM
23 | Cn1cc(COC(=O)N2CC3(CNc4cccc5c(N)nccc45)CC2(COc2ccn(C)c(=O)c2)C3)cn1 [Example 13022, (1-methyl-1H-pyrazol-4-yl)methyl 4-(((1-aminoisoquinolin-5-yl)amino)methyl)-1-(((1-methyl-2-oxo-1,2-dihydropyridin-4-yl)oxy)methyl)-2-azabicyclo[2.1.1]hexane-2-carboxylate] | 10 to 100 nM
24 | Nc1nccc2c(NCC34CC(COc5cc6nccn6cn5)(CO3)C4)cccc12 [Example 6623, N5-((4-((imidazo[1,2-c]pyrimidin-7-yloxy)methyl)-2-oxabicyclo[2.1.1]hexan-1-yl)methyl)isoquinoline-1,5-diamine] | 3000 to 10000 nM
25 | Cn1ccc(OCC23CN(C(=O)CCc4cccc(C#N)c4)C(CNc4cccc5c(N)nccc45)(C2)C3)cc1=O [Example 12044, 3-(3-(1-(((1-aminoisoquinolin-5-yl)amino)methyl)-4-(((1-methyl-2-oxo-1,2-dihydropyridin-4-yl)oxy)methyl)-2-azabicyclo[2.1.1]hexan-2-yl)-3-oxopropyl)benzonitrile] | 10 to 100 nM
